{"source": "patent US20110262490A1", "about": "“POLYMER-AGENT CONJUGATES, PARTICLES, COMPOSITIONS, AND RELATED METHODS OF USE” (priority 2009, published 2011)", "key": {"H1299 tumor": {"tested_on": "H1299 tumor", "test": "Efficacy and tolerability in non-small cell lung carcinoma model H1299 (Example 60)", "conditions": "small tumor group; for Tumor growth inhibition (% TGI): 30 mg/kg IV 1/wk×2, 30 mg/kg", "quoted_text": "H1299 cells were grown in culture to 85-90% confluency in RPMI medium supplemented with 10% fetal bovine serum (FBS), 1% glutamine and 1% penicillin/streptomycin. Cells were removed from the culture flask using 0.05% trypsin (passage=4), re-suspended in RPMI medium (density=50×10^6 cells/mL) and were implanted subcutaneously (5×10^6 cells in 100 μL RPMI medium/mouse) into the mammary fat pad area of male nu/nu mice on day 1.\nThe treatments were administered IV into the tail vein at a dose volume of 10 and 20 mL/kg for 30 and 60 mg/kg respectively, beginning on post-implantation day 30 when the mean tumor volume was ca. 170 mm^3 (small tumor group), and on day 37 when the mean tumor volume was ca. 440 mm^3 (large tumor group). Body weight and tumor volume were measured for three times a week during the dosing period and twice a week thereafter. In addition, animals were also monitored for any morbidity and adverse effects for three times a week during the dosing period and twice a week thereafter.\nTumor volume was calculated with (width×width×length)/2 mm^3 formula. Efficacy was determined by tumor growth inhibition (TGI), tumor growth delay (TGD) and survival. Tumor growth inhibition (TGI) is represented as % and calculated as (1−(treated tumor volume/control tumor volume))×100 when the control group mean tumor volume reached ≧1000 mm^3 Tumor growth delay (TGD) is calculated by subtracting the day when the vehicle treated group reached the maximum tumor size 1000 mm^3 from the day when the treatment group tumor size reached 1000 mm^3."}, "B16.F10 tumor": {"tested_on": "B16.F10 tumor", "test": "Efficacy and tolerability in B16.F10 murine melanoma model (Example 43)", "assay_type": "in vivo, mouse", "protocol": "Refer to table for detailed description of formulations.\nTumor volume was calculated with the following equation: (width×width×length)/2 mm^3."}, "HCT-116 tumor": {"tested_on": "HCT-116 tumor", "test": "In vivo efficacy in HCT-116 colon xenograft model (Example 44)", "parameters": "species or system mouse", "conditions": "30 mg/kg IV weekly×2", "protocol": "HCT-116 cells were grown in culture to confluency in McCoy's 5a medium containing 10% FBS and 1% penicillin/streptomycin and then resuspended in McCoy's 5a (passage 4). This suspension of HCT-116 cells (density=3.7×10^6 cells/mL) was implanted subcutaneously above the right hind leg of male CD-1 nude mice on day 1."}, "MDA-MB-435 tumor [1]": {"tested_on": "MDA-MB-435 tumor", "test": "In vivo efficacy in MDA-MB-435 melanoma human xenograft model (Example 46)", "parameters": "species or system mouse", "protocol": "MDA-MB-435 cells were grown in culture to confluency in RPMI medium containing 10% FBS and 1% penicillin/streptomycin and then resuspended in RPMI (passage 4) for implantation into mice. A volume of 0.1 mL containing 4.0×10^6 cells MDA-MB-435 cells were implanted into the mammary gland of female CD-1 nude mice on Day 1."}, "MDA-MB-435 tumor [2]": {"tested_on": "MDA-MB-435 tumor", "test": "MDA-MB-435 breast xenograft model, delayed treatment (Example 93)", "assay_type": "in vivo, mouse", "excerpt": "See, for example, FIG. 7."}, "[3]": {"conditions": "15 mg/kg IV q3dq4dx3, listed as Docetaxel"}, "[4]": {"conditions": "15 mg/kg IV three times, once every week"}, "[5]": {"conditions": "30 mg/kg IV 1/biwk×3, listed as free docetaxel"}}, "note": "Several values for one entry are separate records, joined by “and”; a condition that tells them apart may be missing. Equal entries are not always repeated. Where two headings read alike, the source gives them in different places.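 For Day mean tumor volume endpoint (≧1000 mm^3) reached in this document: tumor volume and body weight recorded thrice weekly while dosing and twice weekly afterwards, with animals checked for morbidity and adverse effects on the same schedule.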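 For Day of 50% survival in this document: tumor volume and body weight recorded thrice weekly while dosing and twice weekly afterwards, with animals checked for morbidity and adverse effects on the same schedule.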"}
{"smiles": "CC(=O)O[C@@]12CO[C@@H]1C[C@H](O)[C@@]1(C)C(=O)[C@H](O)C3=C(C)[C@@H](OC(=O)[C@H](O)[C@@H](NC(=O)OC(C)(C)C)c4ccccc4)C[C@@](O)([C@@H](OC(=O)c4ccccc4)[C@H]21)C3(C)C", "note": "[Free docetaxel, docetaxel]", "values": [{"measurement": "Increase in TGD", "setting": "H1299 tumor; 30 mg/kg 1/wk×2", "result": 39, "unit": "%"}, {"measurement": "Maximum body weight loss", "setting": "H1299 tumor; 30 mg/kg 1/wk×2", "result": 18, "unit": "%"}, {"measurement": "Tumor growth delay (TGD)", "setting": "H1299 tumor; 30 mg/kg 1/wk×2", "result": 17, "unit": "days"}, {"measurement": "Tumor growth inhibition (% TGI)", "setting": "H1299 tumor", "result": 64, "unit": "%"}, {"measurement": "Tumor growth inhibition (% TGI)", "setting": "H1299 tumor; listed as free docetaxel", "result": 64, "unit": "%"}, {"measurement": "Hind limb paralysis", "setting": "H1299 tumor; 60 mg/kg 1/wk×2", "result": "severe hind limb paralysis"}, {"measurement": "Maximum body weight loss", "setting": "H1299 tumor; 60 mg/kg 1/wk×2", "result": "significant body weight loss"}, {"measurement": "Tumor growth inhibition (TGI)", "setting": "B16.F10 tumor; 15 mg/kg IV q3dq4dx3", "result": 90, "unit": "%"}, {"measurement": "Maximum body weight loss", "setting": "B16.F10 tumor; [3]", "result": "11% and 12%"}, {"measurement": "Tumor growth delay (TGD)", "setting": "B16.F10 tumor; [3]", "result": "11 days and 12 days"}, {"measurement": "Maximum body weight loss", "setting": "B16.F10 tumor; 15 mg/kg IV q4dq3dx3", "result": 11, "unit": "%"}, {"measurement": "Tumor growth delay (TGD)", "setting": "B16.F10 tumor; 15 mg/kg IV q4dq3dx3", "result": 11, "unit": "days"}, {"measurement": "Tumor growth inhibition (TGI)", "setting": "B16.F10 tumor; 15 mg/kg IV q4dq3dx3", "result": 90, "unit": "%"}, {"measurement": "Maximum body weight loss", "setting": "B16.F10 tumor; [4]", "result": 11, "unit": "%"}, {"measurement": "Tumor growth delay (TGD)", "setting": "B16.F10 tumor; [4]", "result": 11, "unit": "days"}, {"measurement": "Tumor growth inhibition (TGI)", "setting": "B16.F10 tumor; [4]", "result": "approximately 90%"}, {"measurement": "Maximum body weight loss", "setting": "B16.F10 tumor; 30 mg/kg IV q7dx3", "result": 11, "unit": "%"}, {"measurement": "Tumor growth delay (TGD)", "setting": "B16.F10 tumor; 30 mg/kg IV q7dx3", "result": 17, "unit": "days"}, {"measurement": "Tumor growth inhibition (TGI)", "setting": "B16.F10 tumor; 30 mg/kg IV q7dx3", "result": 90, "unit": "%"}, {"measurement": "Day tumor volume end point (3000 mm^3) reached", "setting": "B16.F10 tumor; 30 mg/kg q7dx3", "result": 37, "unit": "days"}, {"measurement": "Tumor growth delay (TGD)", "setting": "B16.F10 tumor; 60 mg/kg IV q14dx2", "result": 11, "unit": "days"}, {"measurement": "Tumor growth inhibition (TGI)", "setting": "B16.F10 tumor; 60 mg/kg IV q14dx2", "result": 71, "unit": "%"}, {"measurement": "Maximum body weight loss", "setting": "B16.F10 tumor; 60 mg/kg IV q14dx2, listed as Docetaxel", "result": 0, "unit": "%"}, {"measurement": "Maximum body weight loss", "setting": "B16.F10 tumor; 60 mg/kg IV q14dx2, listed as docetaxel", "result": "did not show any body weight loss"}, {"measurement": "Day tumor volume end point (3000 mm^3) reached", "setting": "B16.F10 tumor; 60 mg/kg q14dx2", "result": 29, "unit": "days"}, {"measurement": "Maximum body weight loss", "setting": "HCT-116 tumor", "result": 14, "unit": "%"}, {"measurement": "Tumor growth inhibition (TGI)", "setting": "HCT-116 tumor", "result": 88, "unit": "%"}, {"measurement": "TGD", "setting": "HCT-116 tumor; end point 1000 mm^3", "result": 22, "unit": "days"}, {"measurement": "Maximum body weight loss", "setting": "MDA-MB-435 tumor [1]; 15 mg/kg IV Days 21 and 28", "result": 10, "unit": "%"}, {"measurement": "Maximum body weight loss", "setting": "MDA-MB-435 tumor [1]; 30 mg/kg IV Days 21 and 28", "result": 14, "unit": "%"}, {"measurement": "Ataxia", "setting": "MDA-MB-435 tumor [1]; 30 mg/kg IV weekly×2", "result": "did not cause ataxia"}, {"measurement": "Body weight loss", "setting": "MDA-MB-435 tumor [1]; 60 mg/kg IV Days 21 and 28 (mean tumor 150 mm^3)", "result": "greater than 20%"}, {"measurement": "Ataxia", "setting": "MDA-MB-435 tumor [1]; 60 mg/kg IV weekly×2, listed as docetaxel", "result": "developed ataxia"}, {"measurement": "Ataxia", "setting": "MDA-MB-435 tumor [1]; 60 mg/kg IV weekly×2, listed as free docetaxel", "result": "Ataxia was observed four days after the second treatment"}, {"measurement": "Effect on tumors allowed to grow to 500 mm^3", "setting": "MDA-MB-435 tumor [2]", "result": "unable to suppress tumor growth over this time period"}, {"measurement": "Day mean tumor volume endpoint (≧1000 mm^3) reached", "setting": "ADR-RES tumor; 30 mg/kg IV 1/biwk×3", "result": 99, "unit": "days"}, {"measurement": "Day of 50% survival", "setting": "ADR-RES tumor; 30 mg/kg IV 1/biwk×3", "result": 102, "unit": "days"}, {"measurement": "Hind limb paralysis", "setting": "ADR-RES tumor; 30 mg/kg IV 1/biwk×3", "result": "did not cause any significant body weight loss (<10%) or hind limb paralysis"}, {"measurement": "Increase in TGD", "setting": "ADR-RES tumor; 30 mg/kg IV 1/biwk×3", "result": 0, "unit": "%"}, {"measurement": "Maximum body weight loss", "setting": "ADR-RES tumor; 30 mg/kg IV 1/biwk×3", "result": 9, "unit": "%"}, {"measurement": "Tumor growth delay (TGD)", "setting": "ADR-RES tumor; 30 mg/kg IV 1/biwk×3", "result": 0, "unit": "days"}, {"measurement": "Tumor growth inhibition (% TGI)", "setting": "ADR-RES tumor; 30 mg/kg IV 1/biwk×3", "result": 0, "unit": "%"}, {"measurement": "Tumor growth delay (TGD)", "setting": "ADR-RES tumor; [5]", "result": "no TGD"}, {"measurement": "Tumor growth inhibition (% TGI)", "setting": "ADR-RES tumor; [5]", "result": 0, "unit": "%"}, {"measurement": "Day mean tumor volume endpoint (≧1000 mm^3) reached", "setting": "ADR-RES tumor; 30 mg/kg IV 1/wk×2", "result": 109, "unit": "days"}, {"measurement": "Day of 50% survival", "setting": "ADR-RES tumor; 30 mg/kg IV 1/wk×2", "result": 106, "unit": "days"}, {"measurement": "Hind limb paralysis", "setting": "ADR-RES tumor; 30 mg/kg IV 1/wk×2", "result": "did not cause any significant body weight loss (<10%) or hind limb paralysis"}, {"measurement": "Increase in TGD", "setting": "ADR-RES tumor; 30 mg/kg IV 1/wk×2", "result": 13, "unit": "%"}, {"measurement": "Maximum body weight loss", "setting": "ADR-RES tumor; 30 mg/kg IV 1/wk×2", "result": 6, "unit": "%"}, {"measurement": "Tumor growth delay (TGD)", "setting": "ADR-RES tumor; 30 mg/kg IV 1/wk×2", "result": 7, "unit": "days"}, {"measurement": "Tumor growth inhibition (% TGI)", "setting": "ADR-RES tumor; 30 mg/kg IV 1/wk×2", "result": 23, "unit": "%"}, {"measurement": "Tumor growth inhibition (% TGI)", "setting": "ADR-RES tumor; 30 mg/kg IV 1/wk×2, listed as free docetaxel", "result": 23, "unit": "%"}, {"measurement": "Hind limb paralysis", "setting": "ADR-RES tumor; 60 mg/kg IV 1/biwk×3", "result": "severe hind limb paralysis"}, {"measurement": "Maximum body weight loss", "setting": "ADR-RES tumor; 60 mg/kg IV 1/biwk×3", "result": 21, "unit": "%"}, {"measurement": "Day mean tumor volume endpoint (≧1000 mm^3) reached", "setting": "ADR-RES tumor; 60 mg/kg IV 1/wk×2", "result": 106, "unit": "days"}, {"measurement": "Day of 50% survival", "setting": "ADR-RES tumor; 60 mg/kg IV 1/wk×2", "result": 106, "unit": "days"}, {"measurement": "Hind limb paralysis", "setting": "ADR-RES tumor; 60 mg/kg IV 1/wk×2", "result": "hind limb paralysis after the 2nd injection followed by recovery"}, {"measurement": "Increase in TGD", "setting": "ADR-RES tumor; 60 mg/kg IV 1/wk×2", "result": 7, "unit": "%"}, {"measurement": "Maximum body weight loss", "setting": "ADR-RES tumor; 60 mg/kg IV 1/wk×2", "result": 23, "unit": "%"}, {"measurement": "Tumor growth delay (TGD)", "setting": "ADR-RES tumor; 60 mg/kg IV 1/wk×2", "result": 4, "unit": "days"}, {"measurement": "Tumor growth inhibition (% TGI)", "setting": "ADR-RES tumor; 60 mg/kg IV 1/wk×2", "result": 14, "unit": "%"}, {"measurement": "Tumor growth inhibition (% TGI)", "setting": "ADR-RES tumor; 60 mg/kg IV 1/wk×2, listed as free docetaxel", "result": 14, "unit": "%"}]}
